Data published in patent US7713994B2 (Wyeth LLC, priority 2005, dated 2010).
Where two headings read alike, the source gives them in different places.

How the values were obtained:
cyclin B/CDK1 enzyme = target: T1, cyclin B/CDK1 enzyme (Homo sapiens, UniProt P06493); assay: CDK1 ELISA kinase assay (phospho-Rb ser 795 detection); type: biochemical; conditions: In Vitro Enzyme Assays, read-out: CDK1 IC50
T1 construct: purchased New England BioLabs; host or cells: Sf9 insect cells, recombinant baculovirus
T1 sequence (P06493 whole entry): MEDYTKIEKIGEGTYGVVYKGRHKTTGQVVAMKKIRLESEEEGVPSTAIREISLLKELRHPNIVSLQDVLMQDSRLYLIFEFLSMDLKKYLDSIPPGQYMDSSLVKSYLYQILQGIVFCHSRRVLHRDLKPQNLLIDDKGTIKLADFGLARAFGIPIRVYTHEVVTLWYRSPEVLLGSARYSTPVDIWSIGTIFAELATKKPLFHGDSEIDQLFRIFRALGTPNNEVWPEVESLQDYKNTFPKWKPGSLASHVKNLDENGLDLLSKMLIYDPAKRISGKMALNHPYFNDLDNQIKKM
T1 sequence (P14635 whole entry partner): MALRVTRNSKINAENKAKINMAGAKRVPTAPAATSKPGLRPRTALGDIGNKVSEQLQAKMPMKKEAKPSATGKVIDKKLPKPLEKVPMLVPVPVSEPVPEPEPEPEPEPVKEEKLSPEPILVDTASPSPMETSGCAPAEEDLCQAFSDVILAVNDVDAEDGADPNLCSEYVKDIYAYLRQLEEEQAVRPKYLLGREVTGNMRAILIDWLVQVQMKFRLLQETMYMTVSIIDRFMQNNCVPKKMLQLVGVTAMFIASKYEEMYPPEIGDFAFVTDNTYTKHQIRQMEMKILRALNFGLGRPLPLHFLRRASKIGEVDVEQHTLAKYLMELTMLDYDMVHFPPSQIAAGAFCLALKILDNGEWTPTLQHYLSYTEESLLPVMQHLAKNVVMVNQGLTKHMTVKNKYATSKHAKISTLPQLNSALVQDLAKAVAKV
Procedure, shortened: (§1)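 Wells were coated overnight with GST-Rb C-terminal fragment, then blocked. Compound (10 ug/ml final) and cyclin/CDK enzyme from baculovirus-infected Sf9 cells with 200 μM ATP reacted 1 h at 30° C. Ser795 phosphorylation was detected by ELISA at 450 nm.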

BT474 = assay: Cytotoxicity assay (SRB), BT474; type: cell-based; conditions: Homo sapiens, BT-474, 144 h, read-out: In Vitro Cellular Activity IC50 BT474
Procedure, shortened: (§2)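 Plate cells, let them attach overnight, add compound dilutions in RPMI 1640/5% FBS, and incubate 3 days (BT474 6 days). Then fix with TCA, stain with SRB, dissolve the dye in Tris and read at 540 nm.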

cyclin D1/cdk 4 enzyme = target: T2, cyclin D1/cdk 4 enzyme (Homo sapiens, UniProt P11802); assay: CDK4 ELISA kinase assay (phospho-Rb ser 795 detection); type: biochemical; conditions: In Vitro Enzyme Assays, 200 μM ATP, read-out: CDK4 IC50
T2 construct: made in house; host or cells: Sf9 insect cells, recombinant baculovirus
T2 sequence (P11802 whole entry, species assumed): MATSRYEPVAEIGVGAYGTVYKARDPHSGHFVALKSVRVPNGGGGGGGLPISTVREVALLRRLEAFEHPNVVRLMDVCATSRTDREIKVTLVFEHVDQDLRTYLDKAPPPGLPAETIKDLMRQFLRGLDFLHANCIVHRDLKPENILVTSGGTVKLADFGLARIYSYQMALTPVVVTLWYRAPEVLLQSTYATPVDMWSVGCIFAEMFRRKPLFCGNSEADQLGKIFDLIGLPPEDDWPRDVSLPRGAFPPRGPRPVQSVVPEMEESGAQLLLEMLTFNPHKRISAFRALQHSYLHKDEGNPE
T2 sequence (P24385 whole entry partner, species assumed): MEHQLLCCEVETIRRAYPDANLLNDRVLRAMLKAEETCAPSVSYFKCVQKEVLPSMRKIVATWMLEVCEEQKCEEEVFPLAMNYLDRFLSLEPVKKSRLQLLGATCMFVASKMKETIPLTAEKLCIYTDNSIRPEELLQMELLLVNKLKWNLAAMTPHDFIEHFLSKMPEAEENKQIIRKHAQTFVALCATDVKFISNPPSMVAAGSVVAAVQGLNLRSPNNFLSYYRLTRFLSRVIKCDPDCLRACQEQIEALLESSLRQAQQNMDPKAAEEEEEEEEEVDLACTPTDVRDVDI
Procedure, shortened: as §1

LoVo = assay: Cytotoxicity assay (SRB), LoVo; type: cell-based; conditions: Homo sapiens, LoVo, 72 h, read-out: In Vitro Cellular Activity IC50 LOVO
Procedure, shortened: as §2

cyclin E/CDK2 enzyme = target: T3, cyclin E/CDK2 enzyme (Homo sapiens, UniProt P24941); assay: CDK2 ELISA kinase assay (phospho-Rb ser 795 detection); type: biochemical; conditions: In Vitro Enzyme Assays, read-out: CDK2 IC50
T3 construct: made in house; host or cells: Sf9 insect cells, recombinant baculovirus
Procedure, shortened: as §1

MCF-7 = assay: Cytotoxicity assay (SRB), MCF-7; type: cell-based; conditions: Homo sapiens, MCF7, 72 h, read-out: In Vitro Cellular Activity IC50 MCF-7
Procedure, shortened: as §2

HCT-116 = assay: Cytotoxicity assay (SRB), HCT-116; type: cell-based; conditions: Homo sapiens, HCT-116, 72 h, read-out: In Vitro Cellular Activity IC50 HCT116
Procedure, shortened: as §2

SMILES | IC50 (cyclin B/CDK1 enzyme) [µM] | IC50 (BT474; BT474 cells, SRB, 6 days) [µM] | IC50 (cyclin D1/cdk 4 enzyme) [µM] | IC50 (LoVo; LoVo cells, SRB, three days) [µM] | melting point | IC50 (cyclin E/CDK2 enzyme) [µM] | IC50 (MCF-7; MCF-7 cells, SRB, three days) [µM] | IC50 (HCT-116; HCT116 cells, SRB, three days) [µM] | IC50 (BT474) [µM] | IC50 (LoVo) [µM] | IC50 (MCF-7) [µM] | IC50 (HCT-116) [µM]
Nc1cccc(CN/C=C2\C(=O)NC(=O)c3ccc(Br)cc32)c1 [Example 52, (4Z)-4-{[(3-Aminobenzyl)amino]methylene}-6-bromoisoquinoline-1,3(2H,4H)-dione] | > 50 | 41 | 24.3 | > 50 | 214 to 215 °C | 4.5 | > 50 | 40 | – | – | – | –
CC(=O)Oc1ccc(CN/C=C2\C(=O)NC(=O)c3ccc(Br)cc32)cc1OC(C)=O [Example 54, 2-(Acetyloxy)-4-({[(Z)-(6-bromo-1,3-dioxo-2,3-dihydroisoquinolin-4(1H)-ylidene)methyl]-amino}methyl)phenyl acetate] | > 50 | 6.5 | 0.16 | 5.9 | 239 to 240 °C | > 50 | 9.2 | 6.4 | – | – | – | –
NS(=O)(=O)c1ccc(CN/C=C2\C(=O)NC(=O)c3ccc(Br)cc32)cc1 [Example 56, 4-({[(Z)-(6-Bromo-1,3-dioxo-2,3-dihydroisoquinolin-4(1H)-ylidene)methyl]amino}methyl)benzenesulfonamide] | 16.2 | 23 | 0.48 | 30 | 273 to 274 °C | 1.3 | 27 | 28 | – | – | – | –
O=C1NC(=O)c2ccc(Br)cc2/C1=C/Nc1ccc(CN2CCCC2)cc1 [Example 59, (4Z)-6-Bromo-4-({[4-(pyrrolidin-1-ylmethyl)phenyl]amino}methylene)isoquinoline-1,3(2H,4H)-dione] | > 50 | – | 0.23 | – | 165 to 166 °C | 25.2 | – | – | 6.3 | 6.1 | 4.13 | 4.7
O=C1NC(=O)c2ccc(Br)cc2/C1=C/NCc1cc(O)cc(O)c1 [Example 64] | 16.5 | 28 | 0.015 | > 50 | 318 to 319 °C | 0.62 | > 50 | > 50 | – | – | – | –
CC(=O)Oc1cc(CNC=C2C(=O)NC(=O)c3ccc(Br)cc32)cc(OC(C)=O)c1 [Example 69, Acetic acid 3-acetoxy-5-{[(6-bromo-1,3-dioxo-2,3-dihydro-1H-isoquinolin-4-ylidenemethyl)-amino]-methyl}-phenyl ester] | > 50 | 5.6 | 0.12 | 5.2 | 257 to 258 °C | 44.5 | 8.2 | 6.5 | – | – | – | –
CN1CCN(c2ccc(N/C=C3\C(=O)NC(=O)c4ccc(F)cc43)cc2)CC1 [Example 70, (4Z)-6-Fluoro-4-({[4-(4-methylPiperzin-1-yl)phenyl]amino}methylene)isoquinoline-1,3(2H,4H)-dione] | 16.9 | 3.23 | 9.4 | 5.18 | 242 to 243 °C | > 50 | 4.06 | 2.55 | – | – | – | –
CN(C)Cc1ccc(N/C=C2\C(=O)NC(=O)c3ccc(Br)cc32)cc1 [Example 73] | 43.5 | 18 | 0.83 | 13 | 159 to 160 °C | 7.7 | 9.3 | 10 | – | – | – | –
COC(=O)Oc1ccc(CN/C=C2\C(=O)NC(=O)c3ccc(Br)cc32)cc1OC(=O)OC [Example 76, Carbonic acid 5-{[(6-bromo-1,3-dioxo-2,3-dihydro-1H-isoquinolin-4-ylidenemethyl)-amino]-methyl}-2-methoxycarbonyloxy-phenyl ester methyl ester] | 40.7 | 5.5 | 0.39 | 5.9 | 239 to 240 °C | > 50 | 9.1 | 5 | – | – | – | –
COc1cc(CN/C=C2\C(=O)NC(=O)c3ccc(Br)cc32)cc(OC(C)=O)c1OC [Example 77, 5-({[(Z)-(6-Bromo-1,3-dioxo-2,3-dihydroisoquinolin-4(1H)-ylidene)methyl]amino}methyl)-2,3-dimethoxyphenyl acetate] | > 50 | 7.7 | 0.38 | 8.4 | 244 to 245 °C | > 50 | 14.4 | 4.8 | – | – | – | –
COc1cc(CN/C=C2\C(=O)NC(=O)c3ccc(-c4ccsc4)cc32)cc(O)c1OC [Example 85] | > 50 | 3.5 | 0.001 | 2.7 | 255 to 256 °C | > 50 | 8.4 | 3.7 | – | – | – | –
COc1cc(CN/C=C2\C(=O)NC(=O)c3ccc(-c4ccoc4)cc32)cc(O)c1OC [Example 87] | 1.2 | 1.3 | 0.0008 | 4.2 | 263 to 264 °C | 8.1 | 4.1 | 4.2 | – | – | – | –
COc1cc(CN/C=C2\C(=O)NC(=O)c3ccc(I)cc32)cc(O)c1OC [Example 89, (4Z)-6-Iodo-4-{[(3-hydroxy-4,5-dimethoxybenzyl)amino)methylene}isoquinoline-1,3(2H,4H)-dione] | > 50 | 5.9 | 0.002 | 7.8 | 265 to 266 °C | 3.3 | 20 | 3.7 | – | – | – | –
COc1ccc2c(c1)/C(=C/NCc1ccc(OC)c(O)c1)C(=O)NC2=O [Example 90, 4-[(3-Hydroxy-4-methoxy-benzylamino)-methylene]-6-methoxy-4H-isoquinoline-1,3-dione] | 22.3 | 6.9 | 0.031 | 24 | 240 to 242 °C (dec.) | 2.9 | 12 | 9.8 | – | – | – | –
O=C1NC(=O)c2ccc(Br)cc2/C1=C/c1cc(Br)c(O)c(Br)c1 [Example 94, (4Z)-6-Bromo-4-(3,5-dibromo-4-hydroxybenzylidene)isoquinoline-1,3(2H,4H)-dione] | > 50 | 2 | 9.4 | 6.4 | 167 to 168 °C | > 50 | 2.3 | 3.4 | – | – | – | –
O=Cc1sccc1-c1ccc2c(c1)/C(=C/Nc1ccc(CN3CCCCC3)cc1)C(=O)NC2=O [Example 97] | > 50 | 3.1 | 1 | 1.9 | 224 to 225 °C | 6.7 | 2.8 | 1.5 | – | – | – | –
